Test results reported in patent publication US6358947B1 (American Home Products Corporation, priority 1999, dated 2002).

Assays:
Format in all cases: cell-based
[1] = biological target: T1, human PR (Homo sapiens, UniProt P06401); assay: Cotransfection assay, PR agonist, CV-1 cells
T1 sequence (P06401 1-933): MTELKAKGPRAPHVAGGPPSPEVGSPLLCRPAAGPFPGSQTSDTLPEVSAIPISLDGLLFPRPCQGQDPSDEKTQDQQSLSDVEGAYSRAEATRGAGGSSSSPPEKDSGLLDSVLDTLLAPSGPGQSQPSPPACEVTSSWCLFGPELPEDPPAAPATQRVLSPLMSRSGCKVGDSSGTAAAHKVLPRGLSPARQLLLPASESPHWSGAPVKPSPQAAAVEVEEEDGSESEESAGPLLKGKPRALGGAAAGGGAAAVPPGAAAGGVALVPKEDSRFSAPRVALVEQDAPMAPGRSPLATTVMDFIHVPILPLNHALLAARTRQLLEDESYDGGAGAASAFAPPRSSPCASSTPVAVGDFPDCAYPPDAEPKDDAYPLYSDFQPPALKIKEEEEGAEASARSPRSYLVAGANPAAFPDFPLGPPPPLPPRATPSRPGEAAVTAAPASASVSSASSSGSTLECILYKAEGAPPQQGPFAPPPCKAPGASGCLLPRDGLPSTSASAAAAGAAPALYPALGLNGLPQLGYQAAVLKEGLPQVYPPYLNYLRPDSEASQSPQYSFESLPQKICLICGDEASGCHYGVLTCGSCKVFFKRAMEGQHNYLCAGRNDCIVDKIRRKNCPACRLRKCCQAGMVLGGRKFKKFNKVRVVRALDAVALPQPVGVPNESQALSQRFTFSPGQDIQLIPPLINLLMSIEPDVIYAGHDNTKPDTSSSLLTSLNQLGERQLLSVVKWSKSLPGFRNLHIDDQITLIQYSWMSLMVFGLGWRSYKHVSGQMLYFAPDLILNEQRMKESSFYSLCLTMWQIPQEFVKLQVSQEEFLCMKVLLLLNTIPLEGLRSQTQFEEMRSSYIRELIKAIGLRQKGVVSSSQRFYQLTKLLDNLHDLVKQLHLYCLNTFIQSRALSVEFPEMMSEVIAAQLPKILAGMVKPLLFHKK
Description: (§1) The cotransfection assay provides a method for identifying functional agonists and partial agonists that mimic, or antagonists that inhibit, the effect of native hormones, and for quantifying their activity for responsive intracellular receptor (IR) proteins. In this regard, the cotransfection assay mimics an in vivo system in the laboratory. Importantly, activity in the cotransfection assay correlates very well with known in vivo activity, such that the cotransfection assay functions as a qualitative and quantitative predictor of a tested compound's in vivo pharmacology.
(§2) In the cotransfection assay, a cloned cDNA for an IR (e.g., human PR, AR or GR) under the control of a constitutive promoter (e.g., the SV 40 promoter) is introduced by transfection (a procedure to induce cells to take up foreign genes) into a background cell substantially devoid of endogenous IRs. This introduced gene directs the recipient cells to make the IR protein of interest. A second gene is also introduced (cotransfected) into the same cells in conjunction with the IR gene. This second gene, comprising the cDNA for a reporter protein, such as firefly luciferase (LUC), is controlled by an appropriate hormone responsive promoter containing a hormone response element (HRE). This reporter plasmid functions as a reporter for the transcription-modulating activity of the target IR. Thus, the reporter acts as a surrogate for the products (mRNA, then protein) normally expressed by a gene under control of the target receptor and its native hormone.
(§3) The cotransfection assay can detect small molecule agonists or antagonists of target IRs. Exposing the transfected cells to an agonist ligand compound increases reporter activity in the transfected cells. This activity can be conveniently measured, e.g., by increasing luciferase production, which reflects compound-dependent, IR-mediated increases in reporter transcription. […] Increasing concentrations of a suspected antagonist will decrease the reporter signal (e.g., luciferase production). The cotransfection assay is therefore useful to detect both agonists and antagonists of specific IRs. Furthermore, it determines not only whether a compound interacts with a particular IR, but whether this interaction mimics (agonizes) or blocks (antagonizes) the effects of the native regulatory molecules on target gene expression, as well as the specificity and strength of this interaction.

[2] = biological target: T2, hER (Homo sapiens, UniProt P03372); assay: Cotransfection assay, ER antagonist; settings: read-out: ER Potency Antag
T2 sequence (P03372 1-595): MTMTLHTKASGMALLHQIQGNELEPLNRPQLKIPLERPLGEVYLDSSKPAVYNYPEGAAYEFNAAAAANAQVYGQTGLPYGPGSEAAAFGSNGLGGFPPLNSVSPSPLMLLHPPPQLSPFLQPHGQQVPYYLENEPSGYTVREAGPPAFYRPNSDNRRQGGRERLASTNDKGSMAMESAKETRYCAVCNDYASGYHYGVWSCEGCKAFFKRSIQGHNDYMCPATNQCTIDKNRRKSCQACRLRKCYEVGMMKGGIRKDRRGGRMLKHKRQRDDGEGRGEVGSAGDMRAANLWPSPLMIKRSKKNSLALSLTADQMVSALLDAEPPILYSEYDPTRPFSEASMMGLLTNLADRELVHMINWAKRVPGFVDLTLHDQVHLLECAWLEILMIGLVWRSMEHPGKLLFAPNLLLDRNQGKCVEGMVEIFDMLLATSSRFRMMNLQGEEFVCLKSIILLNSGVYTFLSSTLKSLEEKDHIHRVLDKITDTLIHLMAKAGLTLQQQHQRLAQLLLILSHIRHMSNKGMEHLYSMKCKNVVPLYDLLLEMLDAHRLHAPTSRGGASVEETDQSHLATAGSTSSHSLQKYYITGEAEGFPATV
Description: as §1, §2, §3

[3] = biological target: T2, hER; assay: Cotransfection assay, ER agonist; settings: read-out: ER Potency Agon
Description: as §1, §2, §3

[4] = biological target: T3, hMR (Homo sapiens, UniProt P08235); assay: Cotransfection assay, MR antagonist; settings: read-out: MR Potency Antag
T3 sequence (P08235 1-984): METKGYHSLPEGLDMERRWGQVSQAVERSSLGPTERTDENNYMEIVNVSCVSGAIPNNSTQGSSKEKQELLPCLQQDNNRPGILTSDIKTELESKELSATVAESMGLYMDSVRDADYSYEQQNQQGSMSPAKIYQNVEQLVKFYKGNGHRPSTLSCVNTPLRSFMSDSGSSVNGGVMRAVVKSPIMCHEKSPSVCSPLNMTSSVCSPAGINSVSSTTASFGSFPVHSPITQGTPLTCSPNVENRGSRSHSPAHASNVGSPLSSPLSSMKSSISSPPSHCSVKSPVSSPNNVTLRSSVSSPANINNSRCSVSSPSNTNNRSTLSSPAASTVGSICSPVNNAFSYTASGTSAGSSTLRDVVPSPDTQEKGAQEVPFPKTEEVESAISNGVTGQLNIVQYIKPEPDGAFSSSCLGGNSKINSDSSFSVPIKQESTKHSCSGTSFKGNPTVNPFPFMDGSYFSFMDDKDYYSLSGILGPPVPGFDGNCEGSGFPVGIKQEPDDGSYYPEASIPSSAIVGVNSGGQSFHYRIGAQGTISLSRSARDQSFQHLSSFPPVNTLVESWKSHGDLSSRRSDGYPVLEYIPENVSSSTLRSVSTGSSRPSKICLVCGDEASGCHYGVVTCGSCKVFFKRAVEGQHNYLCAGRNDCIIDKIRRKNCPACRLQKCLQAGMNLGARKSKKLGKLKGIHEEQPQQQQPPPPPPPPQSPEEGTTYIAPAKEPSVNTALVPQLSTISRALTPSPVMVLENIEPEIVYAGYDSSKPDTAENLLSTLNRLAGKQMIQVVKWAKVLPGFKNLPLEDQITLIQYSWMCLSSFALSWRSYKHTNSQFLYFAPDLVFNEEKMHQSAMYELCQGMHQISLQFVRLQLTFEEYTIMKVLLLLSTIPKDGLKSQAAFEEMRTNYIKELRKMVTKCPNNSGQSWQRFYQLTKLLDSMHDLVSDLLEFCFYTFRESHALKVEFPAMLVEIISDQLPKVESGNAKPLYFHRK
Description: as §1, §2, §3

[5] = biological target: T4, hGR (Homo sapiens, UniProt P04150); assay: Cotransfection assay, GR antagonist; settings: read-out: GR Potency Antag
T4 sequence (P04150 1-777): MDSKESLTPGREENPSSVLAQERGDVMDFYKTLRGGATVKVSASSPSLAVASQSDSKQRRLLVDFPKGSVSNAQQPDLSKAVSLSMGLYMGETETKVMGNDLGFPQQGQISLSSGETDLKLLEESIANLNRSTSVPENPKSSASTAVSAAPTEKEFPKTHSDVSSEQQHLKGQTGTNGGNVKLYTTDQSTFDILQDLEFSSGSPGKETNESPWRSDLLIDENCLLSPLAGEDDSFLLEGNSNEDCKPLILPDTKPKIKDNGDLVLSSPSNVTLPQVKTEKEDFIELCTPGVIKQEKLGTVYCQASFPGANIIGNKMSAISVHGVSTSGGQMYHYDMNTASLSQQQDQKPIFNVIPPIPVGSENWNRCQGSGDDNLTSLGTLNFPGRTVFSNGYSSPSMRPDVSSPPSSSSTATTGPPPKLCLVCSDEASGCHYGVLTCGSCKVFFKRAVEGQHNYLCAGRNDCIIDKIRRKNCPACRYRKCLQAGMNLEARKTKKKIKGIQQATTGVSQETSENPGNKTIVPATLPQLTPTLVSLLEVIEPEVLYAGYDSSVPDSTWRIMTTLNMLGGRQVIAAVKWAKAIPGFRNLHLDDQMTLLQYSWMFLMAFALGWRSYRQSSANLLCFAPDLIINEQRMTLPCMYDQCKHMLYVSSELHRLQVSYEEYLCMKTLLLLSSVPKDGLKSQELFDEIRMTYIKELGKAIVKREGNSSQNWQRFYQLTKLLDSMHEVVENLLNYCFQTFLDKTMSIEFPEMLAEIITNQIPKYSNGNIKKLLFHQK
Description: as §1, §2, §3

[6] = biological target: T1, human PR; assay: Cotransfection assay, PR antagonist, CV-1 cells; settings: percent maximal response relative to reference antagonist
Description: as §1, §2, §3

Compound: CC(C)C(=O)Nc1ccc([N+](=O)[O-])c(C(F)(F)F)c1 [Flut, reference compound]
- EC50 ([1]; Table 2, read-out: PR Potency Agon): > 10 µM
- IC50 [2]: > 10 µM
- EC50 [3]: > 10 µM
- IC50 [4]: > 10 µM

Compound: CC(=O)S[C@@H]1CC2=CC(=O)CC[C@]2(C)[C@H]2CC[C@@]3(C)[C@@H](CC[C@@]34CCC(=O)O4)[C@H]12 [Spir, reference compound]
- IC50 [5]: 2 µM
- IC50 [2]: > 10 µM
- EC50 [3]: > 10 µM

Compound: CN(C)c1ccc([C@H]2C[C@]3(C)[C@@H](CC[C@]3(O)CCCO)[C@@H]3CCC4=CC(=O)CCC4=C32)cc1 [ZK299, reference compound]
- PR Agonist CV-1 Cells Efficacy [1]: na (key: na = not active (i.e. efficacy of <20 and potency of >10,000))
- PR Antagonist CV-1 Cells Efficacy [6]: 99%
